Data on 46 compounds can be found in US12509459B2, “Inhibitors of NLRP3 inflammasome” (BioAge Labs, Inc., priority 2024, dated 2025).

pIC50: −log10 of the molar value. A value given as a limit tells only on which side of the number the result lay.

Sequence of NLRP3 (Q96P20 whole entry): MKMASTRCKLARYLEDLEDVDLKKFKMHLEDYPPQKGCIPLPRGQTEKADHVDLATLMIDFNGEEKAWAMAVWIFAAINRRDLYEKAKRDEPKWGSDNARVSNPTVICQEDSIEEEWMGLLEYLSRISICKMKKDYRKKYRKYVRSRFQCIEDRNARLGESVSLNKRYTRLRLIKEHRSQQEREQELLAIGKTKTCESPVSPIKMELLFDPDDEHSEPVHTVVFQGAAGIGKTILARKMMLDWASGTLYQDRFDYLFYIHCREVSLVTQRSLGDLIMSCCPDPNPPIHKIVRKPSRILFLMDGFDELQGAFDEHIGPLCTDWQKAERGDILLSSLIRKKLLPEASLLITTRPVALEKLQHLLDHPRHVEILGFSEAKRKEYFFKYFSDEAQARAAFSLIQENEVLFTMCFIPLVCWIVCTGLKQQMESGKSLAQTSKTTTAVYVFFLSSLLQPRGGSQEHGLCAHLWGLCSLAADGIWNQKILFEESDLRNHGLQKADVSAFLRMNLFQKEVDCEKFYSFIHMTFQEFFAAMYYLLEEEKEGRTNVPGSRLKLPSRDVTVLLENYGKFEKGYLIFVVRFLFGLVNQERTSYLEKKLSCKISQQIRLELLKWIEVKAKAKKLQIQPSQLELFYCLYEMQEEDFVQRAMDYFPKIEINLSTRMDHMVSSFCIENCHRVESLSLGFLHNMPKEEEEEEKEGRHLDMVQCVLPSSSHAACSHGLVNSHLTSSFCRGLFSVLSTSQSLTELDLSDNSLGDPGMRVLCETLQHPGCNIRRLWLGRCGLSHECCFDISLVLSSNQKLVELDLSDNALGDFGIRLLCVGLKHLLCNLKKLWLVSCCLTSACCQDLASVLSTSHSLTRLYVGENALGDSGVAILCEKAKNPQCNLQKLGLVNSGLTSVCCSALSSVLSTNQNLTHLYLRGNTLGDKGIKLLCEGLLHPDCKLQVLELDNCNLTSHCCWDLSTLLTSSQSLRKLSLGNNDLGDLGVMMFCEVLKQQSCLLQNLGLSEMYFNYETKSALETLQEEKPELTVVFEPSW

This test concerns the target NLRP3 (Homo sapiens, UniProt Q96P20). Briefly: THP-1 cell-based NLRP3 activation assay. The arrangement: endogenous in cells; host or cells: THP-1 cells (PMA-differentiated, LPS-primed, nigericin-stimulated). The note with it: PMA-differentiated THP-1 cells, LPS 100 ng/mL then 10 μM nigericin. In a few lines: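 After 30 min compound preincubation, inflammasome activation was triggered with 10 μM nigericin (1 h) in LPS-primed (100 ng/mL, 3 h) THP-1 cells differentiated with PMA at 20 nM/24 h or 500 nM/3 h. CellTiter-Glo measured residual cell viability.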
In the case of `CCOc1cc(C(=O)N(C)[C@@H](c2cncc3cn[nH]c23)C2CN(CC)C2)ccc1-c1cccc(C)c1` [Compound 169], the pIC50 – broadly, −log10 of the IC50, conventionally taken in molar units – is more than 7.00.
Under `CCOc1cc(C(=O)N(C)[C@H](c2cncc3cn[nH]c23)C2CNC2)ccc1-c1cccc(C)c1` [Compound 170] stands more than 7.00; under `CCOc1cc(C(=O)N(C)[C@H](c2cncc3cn[nH]c23)C2CN(CC)C2)ccc1-c1cccc(C)c1` [Compound 171], more than 7.00.
`CCOc1cc(C(=O)N(C)[C@@H](c2cncc3cn[nH]c23)C2CN(CC)C2)ccc1-c1cccc(Cl)c1` [Compound 172] gave a pIC50 of more than 7.00.
In the case of `CCOc1cc(C(=O)N(C)[C@@H](c2cncc3cn[nH]c23)C2CN(CC)C2)ccc1-c1cccc(F)c1` [Compound 173] it was more than 7.00; in that of `CCOc1cc(C(=O)N(C)[C@H](c2cncc3cn[nH]c23)C2CN(CC)C2)ccc1-c1cccc(F)c1` [Compound 174], more than 7.00.
Take `CCOc1cc(C(=O)N(C)[C@@H](c2cncc3cn[nH]c23)C2CN(C(C)C)C2)ccc1-c1cccc(F)c1` [Compound 175]: the pIC50 is more than 7.00.
`CCOc1cc(C(=O)N(C)[C@H](c2cncc3cn[nH]c23)C2CN(C(C)C)C2)ccc1-c1cccc(F)c1` [Compound 176]: the pIC50 was 6.30 to 7.00.
`CCOc1cc(C(=O)N(C)[C@@H](c2cncc3cn[nH]c23)C2CN(CC)C2)ccc1-c1ccccc1` [Compound 177]: the pIC50 is more than 7.00.
For the compound `CCOc1cc(C(=O)N(C)[C@@H](c2cncc3cn[nH]c23)C2CN(C)C2)ccc1-c1ccccc1` [Compound 178], the pIC50 is more than 7.00.
Under `CCOc1cc(C(=O)N(C)[C@@H](c2cncc3cn[nH]c23)C2CN(C(C)C)C2)ccc1-c1ccccc1` [Compound 179] stands more than 7.00; under `CCOc1cccc(C(=O)N(C)[C@H](CCN(C)C)c2cnc(CO)c3cn[nH]c23)c1` [Compound 180], 6.00 to 6.30; under `CCOc1cc(C(=O)N(C)[C@@H](c2cncc3cn[nH]c23)C2CNC2)ccc1-c1cccc(Cl)c1` [Compound 181], more than 7.00.
Under `CCOc1cc(C(=O)N(C)[C@H](c2cncc3cn[nH]c23)C2CNC2)ccc1-c1cccc(Cl)c1` [Compound 182] stands more than 7.00; under `CCOc1cc(C(=O)N(C)[C@@H](c2cncc3cn[nH]c23)C2CN(C)C2)ccc1-c1cccc(Cl)c1` [Compound 183], more than 7.00; under `CCOc1cc(C(=O)N(C)[C@H](CCN(CC)CCF)c2cncc3cn[nH]c23)ccc1-c1cccc(F)c1` [Compound 184], more than 7.00.
The compound `CCOc1cc(C(=O)N(C)[C@H](CCN)c2cncc3cn[nH]c23)ccc1C` [Compound 185] showed a pIC50 of 4.82 to 6.00.
Under `CCOc1cc(C(=O)N(C)[C@H](CCN(C)C)c2cccc3cn[nH]c23)ccc1-c1cccc(F)c1` [Compound 186] stands more than 7.00.
In turn, `CCOc1cc(C(=O)N(C)[C@@H](CN2CC(N(C)C)C2)c2cncc3cn[nH]c23)ccc1-c1cccc(F)c1` [Compound 187] showed a pIC50 of more than 7.00.
With `CCOc1cc(C(=O)N(C)[C@H](CN(C)C)c2cnc(CO)c3cn[nH]c23)ccc1-c1cccc(F)c1` [Compound 188], the pIC50 was more than 7.00.
In the case of `CCOc1cc(C(=O)N(C)C(c2cncc3cn[nH]c23)C2C[N+](C)([O-])C2)ccc1-c1cccc(F)c1` (stereo not shown) [Compound 192] it was 6.30 to 7.00.
In the case of `CCOc1cc(C(=O)N(C)[C@H](CCNC)c2cncc3cn[nH]c23)ccc1-c1ccccc1` [Compound 193] it was more than 7.00; in that of `CCOc1cc(C(=O)N(C)[C@H](CCN(C)C)c2cccc3cn[nH]c23)ccc1-c1ccccc1` [Compound 194], more than 7.00.
`CCOc1cc(C(=O)N(C)[C@H](CCN(C)C)c2cccc3cn[nH]c23)ccc1-c1cccc(C)c1` [Compound 195] had a pIC50 of more than 7.00.
Under `CCOc1cc(C(=O)N(C)[C@H](CCN(C)C)c2cccc3cn[nH]c23)ccc1-c1cccc(C#N)c1` [Compound 196] stands more than 7.00; under `CCOc1cc(C(=O)N(C)[C@H](CCNC)c2cccc3cn[nH]c23)ccc1-c1cccc(F)c1` [Compound 197], more than 7.00; under `CN(C)CC[C@H](c1cccc2cn[nH]c12)N(C)C(=O)c1ccc(-c2cccc(F)c2)c(OC2CC2)c1` [Compound 198], more than 7.00.
In the case of `CN(C)CC[C@H](c1cccc2cn[nH]c12)N(C)C(=O)c1ccc(-c2ccccc2)c(OC2CC2)c1` [Compound 199] it was more than 7.00; in that of `CCOc1cc(C(=O)N(C)[C@H](CCN(C)C)c2ccc(C)c3cn[nH]c23)ccc1-c1cccc(F)c1` [Compound 200], 6.30 to 7.00.
In the case of `CCOc1cc(C(=O)N(C)[C@@H](CCN(C)C)c2ccc(C)c3cn[nH]c23)ccc1-c1cccc(F)c1` [Compound 201] it was 6.30 to 7.00; in that of `Cc1ccc([C@@H](CCN(C)C)N(C)C(=O)c2ccc(-c3cccc(F)c3)c(OC3CC3)c2)c2[nH]ncc12` [Compound 202], more than 7.00.
`Cc1ccc([C@H](CCN(C)C)N(C)C(=O)c2ccc(-c3cccc(F)c3)c(OC3CC3)c2)c2[nH]ncc12` [Compound 203] gave a pIC50 of more than 7.00.
As for `CCOc1cc(C(=O)N(C)[C@H](CCN(C)C)c2ccc(C)c3cn[nH]c23)ccc1-c1ccccc1` [Compound 204], the pIC50 was 6.30 to 7.00.
Compound `CCOc1cc(C(=O)N(C)[C@@H](CCN(C)C)c2ccc(C)c3cn[nH]c23)ccc1-c1ccccc1` [Compound 205] showed a pIC50 of more than 7.00.
Regarding `CCOc1cc(C(=O)N(C)[C@H](CC[N+](C)(C)[O-])c2cccc3cn[nH]c23)ccc1-c1cccc(Cl)c1` [Compound 206], the pIC50 is more than 7.00.
`CCOc1cc(C(=O)N(C)[C@H](CC[N+]([O-])(CC)CC)c2cccc3cn[nH]c23)ccc1-c1cccc(Cl)c1` [Compound 207] showed a pIC50 of more than 7.00.
Under `CCOc1cc(C(=O)N(C)[C@H](CN(C)C)c2cncc3cn[nH]c23)ccc1C(C)C` [Compound 208] stands 4.82 to 6.00.
`CCOc1cc(C(=O)N(C)[C@@H](CN(C)C)c2cncc3cn[nH]c23)ccc1C(C)C` [Compound 209] showed a pIC50 of more than 7.00.
The compound `CCOc1cc(C(=O)N(C)[C@H](CC[N+](C)(C)[O-])c2cncc3cn[nH]c23)ccc1-c1cccc(Cl)c1` [Compound 210] showed a pIC50 of 4.82 to 6.00.
Under `CCOc1cc(C(=O)N(C)[C@@H](CCN(C)C)c2cccc3cn[nH]c23)ccc1-c1ccccc1` [Compound 212] stands more than 7.00; under `CCOc1cc(C(=O)N(C)[C@H](CCN(C)C)c2cccc3cn[nH]c23)ccc1-c1cccc(Cl)c1` [Compound 213], more than 7.00; under `CCOc1cc(C(=O)N(C)[C@H](CCN(C)CC)c2cccc3cn[nH]c23)ccc1-c1cccc(F)c1` [Compound 214], more than 7.00.
Regarding `CCOc1cc(C(=O)N(C)[C@H](CCN(CC)CC)c2cccc3cn[nH]c23)ccc1-c1cccc(F)c1` [Compound 215], the pIC50 is more than 7.00.
The compound `CCOc1cc(C(=O)N(C)[C@H](CC[N+]([O-])(CC)CC)c2cccc3cn[nH]c23)ccc1-c1cccc(F)c1` [Compound 216] showed a pIC50 of more than 7.00.
Consider `CCOc1cc(C(=O)N(C)[C@H](CCN2CCC2)c2cccc3cn[nH]c23)ccc1-c1cccc(F)c1` [Compound 217], for which the pIC50 is more than 7.00.
As to `CCOc1cc(C(=O)N(C)[C@H](CCN2CCC2)c2cccc3cn[nH]c23)ccc1-c1cccc(Cl)c1` [Compound 218], the pIC50 was more than 7.00.
